{
  "source": "paper PMC5095062",
  "about": "“The novel choline kinase inhibitor ICL-CCIC-0019 reprograms cellular metabolism and inhibits cancer cell growth” (Oncotarget, 2016)",
  "key": {"HCT116 cells [1]": {"test_system": "HCT116 cells", "assay": "TMRE mitochondrial membrane potential assay", "assay_type": "cell-based, human", "details": "10 μM, 24 h", "experimental": "HCT116 cells were cultured as above with indicated inhibitors and subject to the tetramethylrhodamine ethyl ester dye method (TMRE) membrane potential assay according to the manufacturers instruction (Abcam ab113852) prior to FACS analysis."}, "HCT116 cells [2]": {"test_system": "HCT116 cells", "assay": "Mitochondrial respiration (Seahorse XF24)", "assay_type": "cell-based, human", "details": "10 μM", "experimental": "Extracellular acidification and oxygen consumption rates (ECAR and OCR) were measured in a XF24 extracellular flux analyzer (Seahorse XF24 Extra Cellular Flux Analyzer, North Billerica, MA, USA). Basic XF assay medium was prepared as previously described supplemented with glucose, and the pH adjusted to 7.4 at 37°C. Indicated final concentrations of compounds were obtained by injecting appropriate amounts of compounds dissolved in DMSO or water and diluted in XF assay medium into ports. […] Indicated data points were obtained after 3 min mixing and 2 min wait, followed by 3 min of data collection. Data were normalized to the basal values."}},
  "data": [
    {"substance": "MN58B [reference compound]", "values": [
      {"measurement": "TMRE-detectable mitochondrial membrane potential", "setting": "HCT116 cells [1]", "result": "decreased"},
      {"measurement": "mitochondrial respiration immediately after adding inhibitor (acute effect)", "setting": "HCT116 cells [2]", "result": "decreased mitochondrial respiration"}
    ]}
  ]
}
